From patent US11453677B2 (priority 2016, dated 2022) come the findings set out here.

Common to all, as to assay: cells
What all share (type): cell-based

The subject of test [1] is influenza A virus minigenome (PB2, PB1, PA, NP) RNP_Alaska in 293T cells. The conditions noted are these: HEK-293T, 48 h, read-out: RNP_Alaska EC50.
Test [2] deals with influenza A virus minigenome (PB2, PB1, PA, NP) RNP_CAL in 293T cells. As to conditions: HEK-293T, 48 h, read-out: RNP_CAL_EC50.
Test [3] has as its system influenza virus minigenome (PB2, PB1, PA, NP) RNP_Hubei in 293T cells. The conditions noted are these: unidentified influenza virus, HEK-293T, 48 h, read-out: RNP_Hubei EC50.

Each structure is given as a SMILES string.

In the case of `Cc1cc(F)ccc1[C@H](c1ccc(F)cc1)[C@H]1Cn2ccnc2-c2c(O)c(=O)cnn21` [Example 27, (S)-6-((S)-(4-fluoro-2-methylphenyl)(4-fluorophenyl)methyl)-11-hydroxy-5,6-dihydro-10H-imidazo[2′,1′:3,4]pyrazino[1,2-b]pyridazin-10-one], the results for the EC50 in test [1], in test [2] and in test [3] were 50 nM, 50 nM and 27 nM, respectively.

As to `CSc1cccc([C@H](c2ccc(F)cc2)[C@H]2Cn3ccnc3-c3c(O)c(=O)cnn32)c1` [Example 28, (S)-6-((S)-(4-fluorophenyl)(3-(methylthio)phenyl)methyl)-11-hydroxy-5,6-dihydro-10H-imidazo[2′,1′:3,4]pyrazino[1,2-b]pyridazin-10-one], the results for the EC50 in test [1], in test [2] and in test [3] were 72 nM, 81 nM and 78 nM, respectively.

For `C[C@@H](NCc1cnc2n1C[C@H](C(c1ccccc1)c1ccccc1)n1ccc(=O)c(O)c1-2)C(F)(F)F` [Example 66, (S)-6-benzhydryl-11-hydroxy-3-((((R)-1,1,1-trifluoropropan-2-yl)amino)methyl)-5,6-dihydro-10H-imidazo[1,2-a]pyrido[2,1-c]pyrazin-10-one], the EC50 in test [1] is 720 nM; in test [2] it was 310 nM; in test [3] it was 630 nM.

Consider `O=c1cnn2c(c1O)-c1nccn1C[C@@H]2[C@H](c1ccc(F)cc1)c1cncc(F)c1` [Example 19, (S)-6-((R)-(4-fluorophenyl)(5-fluoropyridin-3-yl)methyl)-11-hydroxy-5,6-dihydro-10H-imidazo[2′,1′:3,4]pyrazino[1,2-b]pyridazin-10-one], for which the EC50 in test [1] was 230 nM; in test [2] it was 260 nM; in test [3] it was 490 nM.

Turning to `O=c1cnn2c(c1O)-c1ncnn1CC2C(c1ccccc1)c1ccccc1` (stereo not drawn) [Example 3, 6-benzhydryl-11-hydroxy-5,6-dihydro-10H-[1,2,4]triazolo[5′,1′:3,4]pyrazino[1,2-b]pyridazin-10-one], the results for the EC50 in test [1], in test [2] and in test [3] were 1400 nM, 1100 nM and 790 nM, respectively.

`O=c1cnn2c(c1O)-c1nc(Br)c(Br)n1C[C@@H]2C(c1ccc(F)cc1)c1ccc(F)cc1` [Example 48, (S)-6-(bis(4-fluorophenyl)methyl)-2,3-dibromo-11-hydroxy-5,6-dihydro-10H-imidazo[2′,1′:3,4]pyrazino[1,2-b]pyridazin-10-one]: the EC50 in test [1] amounted to 5000 nM; in test [2], 4300 nM; in test [3], 12000 nM.

For `O=C(NC1CC1)c1cnc2n1C[C@H](C(c1ccccc1)c1ccccc1)n1ccc(=O)c(O)c1-2` [Example 70, (S)-6-benzhydryl-N-cyclopropyl-11-hydroxy-10-oxo-5,6-dihydro-10H-imidazo[1,2-a]pyrido[2,1-c]pyrazine-3-carboxamide], the values for the EC50 in test [1], in test [2] and in test [3] were 6400 nM, 1700 nM and 12300 nM, respectively.

In the case of `O=c1ccn2c(c1O)-c1nccn1CN2C1c2ccccc2CSc2ccccc21` (stereo not drawn) [Example 74, 6-(6,11-dihydrodibenzo[b,e]thiepin-11-yl)-11-hydroxy-5,6-dihydro-10H-imidazo[1,2-d]pyrido[2,1-f][1,2,4]triazin-10-one], the EC50 was 130 nM in test [1], 84 nM in test [2] and 260 nM in test [3].

With `Cc1ccccc1[C@H](c1ccc(F)cc1)[C@H]1Cn2ccnc2-c2c(O)c(=O)cnn21` [Example 40, (S)-6-((S)-(4-fluorophenyl)(o-tolyl)methyl)-11-hydroxy-5,6-dihydro-10H-imidazo[2′,1′:3,4]pyrazino[1,2-b]pyridazin-10-one], the figures for the EC50 in test [1], in test [2] and in test [3] were 20 nM, 32 nM and 35 nM, respectively.

With `O=c1cnn2c(c1O)-c1nccn1C[C@@H]2[C@@H](c1ccc(F)cc1)c1ccc(F)c(F)c1` [Example 25, (S)-6-((S)-(3,4-difluorophenyl)(4-fluorophenyl)methyl)-11-hydroxy-5H-imidazo[2′,1′:3,4]pyrazino[1,2-b]pyridazin-10(6H)-one], the results for the EC50 in test [1], in test [2] and in test [3] were 62 nM, 56 nM and 100 nM, respectively.

In the case of `O=c1ccn2c(c1O)-c1nccn1CN2C(c1ccccc1)c1ccccc1` [Example 6, 6-benzhydryl-11-hydroxy-5H-imidazo[1,2-d]pyrido[2,1-f][1,2,4]triazin-10(6H)-one], the EC50 in test [1] was 150 nM; in test [2] it was 190 nM; in test [3], 100 nM.

Consider `N#Cc1cccc([C@H](c2ccc(F)cc2)[C@H]2Cn3ccnc3-c3c(O)c(=O)cnn32)c1` [Example 43, 3-((S)-(4-fluorophenyl)((S)-11-hydroxy-10-oxo-5,6-dihydro-10H-imidazo[2′,1′:3,4]pyrazino[1,2-b]pyridazin-6-yl)methyl)benzonitrile], for which the EC50 came out at 140 nM in test [1], 39 nM in test [2] and 170 nM in test [3].

In the case of `O=c1cnn2c(c1O)-c1nccn1C[C@@H]2[C@@H](c1ccc(F)cc1)c1ccccc1Cl` [Example 29, (S)-6-((S)-(2-chlorophenyl)(4-fluorophenyl)methyl)-11-hydroxy-5,6-dihydro-10H-imidazo[2′,1′:3,4]pyrazino[1,2-b]pyridazin-10-one], the figures for the EC50 in test [1], in test [2] and in test [3] were 70 nM, 72 nM and 58 nM, respectively.

Turning to `O=c1ccn2c(c1O)-c1ncoc1CN2C(c1ccccc1)c1ccccc1` [Example 83, 5-benzhydryl-10-hydroxy-4,5-dihydro-9H-oxazolo[4,5-d]pyrido[1,2-b]pyridazin-9-one], the values for the EC50 in test [1], in test [2] and in test [3] were 960 nM, 970 nM and 730 nM, respectively.

For `O=c1ccn2c(c1O)-c1ncc(-c3ccccc3)n1C[C@@H]2C(c1ccccc1)c1ccccc1` [Example 53, (S)-6-benzhydryl-11-hydroxy-3-phenyl-5H-imidazo [1,2-a] pyrido[2,1-c]pyrazin-10(6H)-one], the EC50 in test [1] is 540 nM; in test [2], 3000 nM; in test [3], 190 nM.

Turning to `O=c1cnn2c(c1O)-c1nccn1C[C@@H]2[C@H](c1ccccc1)c1ccc(F)cc1` [Example 17, (S)-6-((R)-(4-fluorophenyl)(phenyl)methyl)-11-hydroxy-5,6-dihydro-10H-imidazo[2′,1′:3,4]pyrazino[1,2-b]pyridazin-10-one], the EC50 in test [1] amounted to 30 nM; in test [2] it was 10 nM; in test [3], 70 nM.

With `Cc1nc2n(c1C)C[C@H](C(c1ccccc1)c1ccccc1)n1ccc(=O)c(O)c1-2` [Example 14, (S)-6-benzhydryl-11-hydroxy-2,3-dimethyl-5H-imidazo[1,2-a]pyrido[2,1-c]pyrazin-10(6H)-one], the values for the EC50 in test [1], in test [2] and in test [3] were 6700 nM, 4200 nM and 5500 nM, respectively.

Take `O=c1cnn2c(c1O)-c1nccn1C[C@@H]2[C@@H](c1ccc(F)cc1)c1cccc(Cl)c1` [Example 31, (S)-6-((S)-(3-chlorophenyl)(4-fluorophenyl)methyl)-11-hydroxy-5,6-dihydro-10H-imidazo[2′,1′:3,4]pyrazino[1,2-b]pyridazin-10-one]: the EC50 in test [1] was 34 nM; in test [2], 37 nM; in test [3], 64 nM.
